Measured values: US9227979B2, “Fluorescent antagonists of the A3 adenosine receptor” (The United States of America, as represented by the …, priority 2012, dated 2016)
Like-named read-outs stand apart in the source and are kept apart here.

Columns and labels:
hA3AR = hA3AR (Homo sapiens (Human), UniProt P0DMS8); test: Radioligand membrane binding assay at hA3AR ([125I]I-AB-MECA); conditions: read-out: A3 Ki
Procedure: (§1) For cell cultures used in radioligand binding assays, after harvest and homogenization, the cells were centrifuged at 200×g for 10 min, and the pellet was re-suspended in 50 mM Tris-HCl buffer (pH 7.5), containing 10 mM MgCl2. The suspension was homogenized with an electric homogenizer for 10 s and was then re-centrifuged at 20,000×g for 20 min at 4° C. The resultant membrane pellets were resuspended in buffer in the presence of 3 units/ml adenosine deaminase, and the suspension was stored at −80° C. until the binding experiments. The protein concentration was measured using the Bradford assay. Radioligand membrane binding assays

hA1 AR = hA1 AR (Homo sapiens (Human), UniProt P30542); test: Radioligand membrane binding assay at hA1 AR ([3H]R-PIA); conditions: for Ki: CHO cells expressing hA1AR, agonist radioligand [3H]R-PIA, read-out: A1 Ki
Sequence of hA1 AR (P30542 whole entry): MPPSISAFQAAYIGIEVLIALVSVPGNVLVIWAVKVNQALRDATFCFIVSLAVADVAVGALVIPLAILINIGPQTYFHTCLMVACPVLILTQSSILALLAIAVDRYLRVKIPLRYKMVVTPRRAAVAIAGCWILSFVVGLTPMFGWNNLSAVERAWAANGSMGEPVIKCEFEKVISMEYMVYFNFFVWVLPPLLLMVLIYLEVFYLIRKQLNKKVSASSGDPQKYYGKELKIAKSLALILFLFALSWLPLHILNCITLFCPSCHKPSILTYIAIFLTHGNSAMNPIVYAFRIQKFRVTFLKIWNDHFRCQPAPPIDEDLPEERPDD
Procedure: as §1

hA2AAR = hA2AAR (Homo sapiens (Human), UniProt P29274); test: Radioligand membrane binding assay at hA2A AR ([3H]CGS21680); conditions: for Ki: read-out: A2A Ki
Sequence of hA2AAR (P29274 whole entry): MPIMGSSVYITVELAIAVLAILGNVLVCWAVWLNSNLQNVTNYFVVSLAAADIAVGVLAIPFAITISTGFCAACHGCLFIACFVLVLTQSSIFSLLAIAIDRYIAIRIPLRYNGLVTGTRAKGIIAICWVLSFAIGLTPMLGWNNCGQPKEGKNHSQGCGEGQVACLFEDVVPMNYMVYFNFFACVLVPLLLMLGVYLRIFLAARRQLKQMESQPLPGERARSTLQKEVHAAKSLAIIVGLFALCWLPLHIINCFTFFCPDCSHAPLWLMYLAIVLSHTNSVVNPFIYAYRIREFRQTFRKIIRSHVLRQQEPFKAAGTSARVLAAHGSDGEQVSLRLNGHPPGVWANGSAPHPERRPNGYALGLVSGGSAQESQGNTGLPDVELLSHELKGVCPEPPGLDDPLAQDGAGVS
Procedure: as §1

[1] = Table 1, CHO cells expressing hA3AR, [125I]I-AB-MECA
[2] = Table 1, HEK293 cells expressing hA2AAR, [3H]CGS21680
[3] = Table 1, inhibition of radioligand binding at 10 μM

Sequence of hA3AR (P0DMS8 whole entry): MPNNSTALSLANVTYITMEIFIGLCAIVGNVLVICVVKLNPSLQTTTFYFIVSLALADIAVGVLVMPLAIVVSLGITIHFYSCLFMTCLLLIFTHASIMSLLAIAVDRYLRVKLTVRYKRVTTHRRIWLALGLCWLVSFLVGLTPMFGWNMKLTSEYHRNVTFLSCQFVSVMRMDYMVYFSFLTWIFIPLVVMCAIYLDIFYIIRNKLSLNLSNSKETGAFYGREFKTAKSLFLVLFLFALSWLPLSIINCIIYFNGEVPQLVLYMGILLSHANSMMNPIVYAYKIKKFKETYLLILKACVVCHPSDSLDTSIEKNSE

Row | Ki (hA3AR; [1]) | Ki (hA1 AR; Table 1) | Ki (hA2AAR; [2]) | A1 % inhibition (hA1 AR; [3]) | Ki (hA3AR; Table 3) | Ki (hA2AAR; Table 3) | A1 % inhibition (hA1 AR; Table 3) | Structure (SMILES) | A2A % Inhibition (hA2AAR; [3]) | melting point
1 |  |  |  |  | 4.47 ± 1.06 nM | 376 ± 96 nM | 14% ± 3% | Cn1cc2c(nc(NC(=O)Nc3ccc(CC(=O)NCCCCCNC(=O)OC(C)(C)C)cc3)n3nc(-c4ccco4)nc23)n1 [Compound 14, tert-Butyl (5-(2-(4-(3-(2-(furan-2-yl)-8-methyl-8H-pyrazolo[4,3-e][1,2,4]triazolo[1,5-c]pyrimidin-5-yl)ureido)phenyl)acetamido)pentyl)carbamate] |  | 
2 |  |  |  |  | 104 ± 44 nM | 110 ± 18 nM | 27% ± 1% | Cn1cc2c(nc(NC(=O)Nc3ccc(CC(=O)NCCCNC(=S)Nc4ccc5c(c4)C(=O)OC54c5ccc(O)cc5Oc5cc(O)ccc54)cc3)n3nc(-c4ccco4)nc23)n1 [Compound 22, N-(3-(3-(Fluorescein-5-yl)thioureido)propyl)-2-(4-(3-(2-(furan-2-yl)-8-methyl-8H-pyrazolo[4,3-e][1,2,4]triazolo[1,5-c]pyrimidin-5-yl)ureido)phenyl)acetamide] |  | 
3 |  |  |  |  | 73.6 ± 14.7 nM | 60.4 ± 6.2 nM | 28% ± 8% | Cn1cc2c(nc(NC(=O)Nc3ccc(CC(=O)NCCCCNC(=S)Nc4ccc5c(c4)C(=O)OC54c5ccc(O)cc5Oc5cc(O)ccc54)cc3)n3nc(-c4ccco4)nc23)n1 [Compound 23, N-(4-(3-(Fluorescein-5-yl)thioureido)butyl)-2-(4-(3-(2-(furan-2-yl)-8-methyl-8H-pyrazolo[4,3-e][1,2,4]triazolo[1,5-c]pyrimidin-5-yl)ureido)phenyl)acetamide] |  | 
4 |  |  |  |  | 96.7 ± 26.9 nM | 106 ± 14 nM | 21% ± 5% | Cn1cc2c(nc(NC(=O)Nc3ccc(CC(=O)NCCCCCNC(=S)Nc4ccc5c(c4)C(=O)OC54c5ccc(O)cc5Oc5cc(O)ccc54)cc3)n3nc(-c4ccco4)nc23)n1 [Compound 24, N-(5-(3-(Fluorescein-5-yl)thioureido)pentyl)-2-(4-(3-(2-(furan-2-yl)-8-methyl-8H-pyrazolo[4,3-e][1,2,4]triazolo[1,5-c]pyrimidin-5-yl)ureido)phenyl)acetamide] |  | 
5 |  |  |  |  | 137 ± 28 nM | 95.7 ± 25.4 nM | 29% ± 1% | Cn1cc2c(nc(NC(=O)Nc3ccc(CC(=O)NCCOCCOCCNC(=S)Nc4ccc5c(c4)C(=O)OC54c5ccc(O)cc5Oc5cc(O)ccc54)cc3)n3nc(-c4ccco4)nc23)n1 [Compound 25, N-(2-(2-(2-(3-(Fluorescein-5-yl)thioureido)ethoxy)ethoxy)ethyl)-2-(4-(3-(2-(furan-2-yl)-8-methyl-8H-pyrazolo[4,3-e][1,2,4]triazolo[1,5-c]pyrimidin-5-yl)ureido)phenyl)acetamide] |  | 
6 |  |  |  |  | 207 ± 95 nM | 91.5 ± 20 nM | 32% ± 6% | Cn1cc2c(nc(NC(=O)Nc3ccc(CC(=O)NCCCOCCOCCOCCCNC(=S)Nc4ccc5c(c4)C(=O)OC54c5ccc(O)cc5Oc5cc(O)ccc54)cc3)n3nc(-c4ccco4)nc23)n1 [Compound 26, N-(1((Fluorescein-5-yl)amino)-1-thioxo-6,9,12-trioxa-2-azapentadecan-15-yl)-2-(4-(3-(2-(furan-2-yl)-8-methyl-8H-pyrazolo[4,3-e][1,2,4]triazolo[1,5-c]pyrimidin-5-yl)ureido)phenyl)acetamide] |  | 
7 |  |  |  |  | 11 ± 0.6 nM | 133 ± 37 nM | 55% ± 4% | C#CCCC(=O)Nc1nc2nn(C)cc2c2nc(-c3ccco3)nn12 [Compound 36, N-(2-(furan-2-yl)-8-methyl-8H-pyrazolo[4,3-e][1,2,4]triazolo[1,5-e]pyrimidin-5-yl)pent-4-ynamide] |  | 
8 |  |  |  |  | 4.11 ± 0.93 nM | 199 nM |  | C#CCCCC(=O)Nc1nc2nn(C)cc2c2nc(-c3ccco3)nn12 [Compound 37, N-(2-(furan-2-yl)-8-methyl-8H-pyrazolo[4,3-e][1,2,4]triazolo[1,5-c]pyrimidin-5-yl)hex-5-ynamide] |  | 210 to 216 °C (dec.)
9 |  |  |  |  | 31.8 nM | 90 nM |  | Cn1cc2c(nc(NC(=O)CCCc3cn(CCCCCCNC(=O)c4ccc(-c5c6ccc(=N)c(S(=O)(=O)O)c-6oc6c(S(=O)(=O)O)c(N)ccc56)c(C(=O)O)c4)nn3)n3nc(-c4ccco4)nc23)n1 [MRS5763] |  | 

More lines, now with the values behind:

Row | Structure (SMILES) | Ki (hA3AR; [1]) | Ki (hA1 AR; Table 1) | Ki (hA2AAR; [2]) | A1 % inhibition (hA1 AR; [3]) | Ki (hA3AR; Table 3) | Ki (hA2AAR; Table 3) | A1 % inhibition (hA1 AR; Table 3) | A2A % Inhibition (hA2AAR; [3]) | melting point
10 | Cn1cc2c(nc(NNC(=S)Nc3ccc(-c4c5ccc(=O)cc-5oc5cc(O)ccc45)c(C(=O)O)c3)n3nc(-c4ccco4)nc23)n1 [Compound 1] | 780 nM | 9500 nM | 920 ± 110 nM |  |  |  |  |  | 
11 | Cn1cc2c(nc(NCCCNC(=S)Nc3ccc(-c4c5ccc(=O)cc-5oc5cc(O)ccc45)c(C(=O)O)c3)n3nc(-c4ccco4)nc23)n1 [Compound 2] | 2390 ± 660 nM |  | 2480 ± 420 nM | (5 ± 2%) |  |  |  |  | 
12 | Cn1cc2c(nc(NCCCCNC(=S)Nc3ccc(-c4c5ccc(=O)cc-5oc5cc(O)ccc45)c(C(=O)O)c3)n3nc(-c4ccco4)nc23)n1 [Compound 3] | 720 nM |  | 460 ± 60 nM | (7 ± 5%) |  |  |  |  | 
13 | Cn1cc2c(nc(NCCCCCNC(=S)Nc3ccc(-c4c5ccc(=O)cc-5oc5cc(O)ccc45)c(C(=O)O)c3)n3nc(-c4ccco4)nc23)n1 [Compound 4] | 5660 ± 610 nM |  | 1750 ± 470 nM | (9 ± 5%) |  |  |  |  | 
14 | Cn1cc2c(nc(NCCOOCCCCNC(=S)Nc3ccc(-c4c5ccc(=O)cc-5oc5cc(O)ccc45)c(C(=O)O)c3)n3nc(-c4ccco4)nc23)n1 [Compound 5] | 9390 ± 1730 nM |  |  | (0%) |  |  |  | (30 ± 6%) | 
15 | Cn1cc2c(nc(NCCCOCCOOCCCCCNC(=S)Nc3ccc(-c4c5ccc(=O)cc-5oc5cc(O)ccc45)c(C(=O)O)c3)n3nc(-c4ccco4)nc23)n1 [Compound 6] | 7090 ± 370 nM |  | 6010 ± 420 nM | (0%) |  |  |  |  | 
16 | C#CCCCC(=O)Nc1nc2ccc(Cl)cc2c2nc(-c3ccco3)nn12 [Compound 8, N-(9-Chloro-2-(furan-2-yl)-[1,2,4]triazolo[1,5-c]quinazolin-5-yl)hex-5-ynamide] | 33.5 ± 10.1 nM | 170 ± 40 nM | 51 ± 10 nM |  |  |  |  |  | 
17 | Cn1cc2c(nc(NC(=O)Nc3ccc(CC(=O)O)cc3)n3nc(-c4ccco4)nc23)n1 [Compound 11, 2-(4-(3-(2-(furan-2-yl)-8-methyl-8H-pyrazolo[4,3-e][1,2,4]triazolo[1,5-c]pyrimidin-5-yl)ureido)phenyl)acetic acid] |  |  |  |  | 128 ± 26 nM | 1010 nM |  |  | 
18 | Cn1cc2c(nc(NC(=O)Nc3ccc(CC(=O)NCCCNC(=O)OC(C)(C)C)cc3)n3nc(-c4ccco4)nc23)n1 [Compound 12, tert-Butyl (3-(2-(4-(3-(2-(furan-2-yl)-8-methyl-8H-pyrazolo[4,3-e][1,2,4]triazolo[1,5-c]pyrimidin-5-yl)ureido)phenyl)acetamido)propyl)carbamate] |  |  |  |  | 2.75 ± 0.2 nM | 150 ± 11 nM | 15% ± 5% |  | 198 to 205 °C
19 | Cn1cc2c(nc(NC(=O)Nc3ccc(CC(=O)NCCCCNC(=O)OC(C)(C)C)cc3)n3nc(-c4ccco4)nc23)n1 [Compound 13, tert-Butyl (4-(2-(4-(3-(2-(furan-2-yl)-8-methyl-8H-pyrazolo[4,3-e][1,2,4]triazolo[1,5-c]pyrimidin-5-yl)ureido)phenyl)acetamido)butyl)carbamate] |  |  |  |  | 3.46 ± 0.33 nM | 304 ± 20 nM | 2% ± 2% |  | 186 to 193 °C
20 | Cn1cc2c(nc(NC(=O)Nc3ccc(CC(=O)NCCOCCOCCNC(=O)OC(C)(C)C)cc3)n3nc(-c4ccco4)nc23)n1 [Compound 15, tert-Butyl (2-(2-(2-(2-(4-(3-(2-(furan-2-yl)-8-methyl-8H-pyrazolo[4,3-e][1,2,4]triazolo[1,5-c]pyrimidin-5-yl)ureido)phenyl)acetamido)-ethoxy)ethoxy)ethyl)carbamate] |  |  |  |  | 74.8 ± 10.1 nM | 456 ± 96 nM | 7% ± 5% |  | 157 to 165 °C
21 | Cn1cc2c(nc(NC(=O)Nc3ccc(CC(=O)NCCCOCCOCCOCCCNC(=O)OC(C)(C)C)cc3)n3nc(-c4ccco4)nc23)n1 [Compound 16, tert-Butyl (1-(4-(3-(2-(furan-2-yl)-8-methyl-8H-pyrazolo[4,3-e][1,2,4]triazolo[1,5-c]pyrimidin-5-yl)ureido)phenyl)-2-oxo-7,10,13-trioxa-3-azahexadecan-16-yl)carbamate] |  |  |  |  | 82.4 ± 20.1 nM | 327 ± 32 nM | 11% ± 5% |  | 151 to 158 °C
22 | Cn1cc2c(nc(NC(=O)Nc3ccc(CC(=O)NCCCN)cc3)n3nc(-c4ccco4)nc23)n1.O=C(O)C(F)(F)F [Compound 17, N-(3-aminopropyl)-2-(4-(3-(2-(furan-2-yl)-8-methyl-8H-pyrazolo[4,3-e][1,2,4]triazolo[1,5-c]pyrimidin-5-yl)ureido)phenyl)acetamide trifluoroacetate salt] |  |  |  |  | 8.06 ± 2.47 nM | 175 ± 27 nM | 9% ± 3% |  | 142 to 150 °C
23 | Cn1cc2c(nc(NC(=O)Nc3ccc(CC(=O)NCCCCN)cc3)n3nc(-c4ccco4)nc23)n1.O=C(O)C(F)(F)F [Compound 18, N-(4-Aminobutyl)-2-(4-(3-(2-(furan-2-yl)-8-methyl-8H-pyrazolo[4,3-e][1,2,4]triazolo[1,5-c]pyrimidin-5-yl)ureido)phenyl)acetamide trifluoroacetate salt] |  |  |  |  | 6 ± 1.29 nM | 172 ± 33 nM | 4% ± 1% |  | 167 to 173 °C
